In ChEMBL document CHEMBL1201862, “PubChem BioAssay data set” (2004):
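Assay format: 96-well plates, 48-hour exposure. GI50 marks 50% less growth.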 Active and inactive are the calls of the source. Rule as the data show it: active = GI50 up to about 1.1 µM and inactive = higher.

Key:
Experiment in all cases: growth of human tumour cells (NCI), 48 h
786-0 = test system: 786-0
COLO 205 = test system: COLO 205
EKVX = test system: EKVX
HCT-116 = test system: HCT-116
HOP-62 = test system: HOP-62
IGROV-1 = test system: IGROV-1
KM12 = test system: KM12
M14 = test system: M14
MCF7 = test system: MCF7
MOLT-4 = test system: MOLT-4
NCI-H23 = test system: NCI-H23
OVCAR-4 = test system: OVCAR-4
RPMI-8226 = test system: RPMI-8226
SK-MEL-28 = test system: SK-MEL-28
SK-MEL-2 = test system: SK-MEL-2
SK-MEL-5 = test system: SK-MEL-5
SNB-19 = test system: SNB-19
U-251 = test system: U-251
HOP-92 = test system: HOP-92
SN12C = test system: SN12C

Cn1c2ccccc2n2c(=O)c3cc([N+](=O)[O-])ccc3c(C#N)c12
GI50 (786-0): 22.3 µM (inactive)
GI50 (COLO 205): > 100 µM (inactive)
GI50 (EKVX): > 100 µM (inactive)
GI50 (HCT-116): > 100 µM (inactive)
GI50 (HOP-62): 27.5 µM (inactive)
GI50 (IGROV-1): > 100 µM (inactive)
GI50 (KM12): > 100 µM (inactive)
GI50 (M14): > 100 µM (inactive)
GI50 (MCF7): > 100 µM (inactive)
GI50 (MOLT-4): > 100 µM (inactive)
GI50 (NCI-H23): > 100 µM (inactive)
GI50 (OVCAR-4): 65.6 µM (inactive)
GI50 (RPMI-8226): > 100 µM (inactive)
GI50 (SK-MEL-28): > 100 µM (inactive)
GI50 (SK-MEL-2): > 100 µM (inactive)
GI50 (SK-MEL-5): > 100 µM (inactive)
GI50 (SNB-19): > 100 µM (inactive)
GI50 (U-251): > 100 µM (inactive)

CC(C)=CC1CC(=[N+]=[N-])C(=O)C1(C)C (centres undefined)
GI50 (786-0): > 100 µM (inactive)
GI50 (COLO 205): > 100 µM (inactive)
GI50 (EKVX): > 100 µM (inactive)
GI50 (HCT-116): > 100 µM (inactive)
GI50 (HOP-62): > 100 µM (inactive)
GI50 (HOP-92): > 80.7 µM (inactive)
GI50 (IGROV-1): > 100 µM (inactive)
GI50 (KM12): > 100 µM (inactive)
GI50 (M14): > 100 µM (inactive)
GI50 (MOLT-4): > 100 µM (inactive)
GI50 (NCI-H23): > 100 µM (inactive)
GI50 (OVCAR-4): > 100 µM (inactive)
GI50 (RPMI-8226): > 51.8 µM (inactive)
GI50 (SK-MEL-28): > 100 µM (inactive)
GI50 (SK-MEL-2): > 100 µM (inactive)
GI50 (SK-MEL-5): > 100 µM (inactive)
GI50 (SN12C): > 100 µM (inactive)
GI50 (SNB-19): > 100 µM (inactive)
GI50 (U-251): > 100 µM (inactive)

O=CN/C=C/c1ccccc1O
GI50 (786-0): > 100 µM (inactive)
GI50 (COLO 205): > 100 µM (inactive)
GI50 (EKVX): > 100 µM (inactive)
GI50 (HCT-116): > 100 µM (inactive)
GI50 (HOP-62): > 100 µM (inactive)
GI50 (HOP-92): > 100 µM (inactive)
GI50 (IGROV-1): > 100 µM (inactive)
GI50 (KM12): > 100 µM (inactive)
GI50 (M14): > 100 µM (inactive)
GI50 (MOLT-4): > 100 µM (inactive)
GI50 (NCI-H23): > 100 µM (inactive)
GI50 (OVCAR-4): > 100 µM (inactive)
GI50 (RPMI-8226): > 100 µM (inactive)
GI50 (SK-MEL-28): > 100 µM (inactive)
GI50 (SK-MEL-2): > 100 µM (inactive)
GI50 (SK-MEL-5): > 100 µM (inactive)
GI50 (SN12C): > 100 µM (inactive)
GI50 (SNB-19): > 100 µM (inactive)
GI50 (U-251): > 100 µM (inactive)

CCOC(=O)C1C=C2O[C@@H]3OC4(CCCCC4)O[C@@H]3C2[C@H]2C(=O)C=CC(=O)[C@@]12C(=O)OC (some centres undefined)
GI50 (786-0): 7.21 µM (inactive)
GI50 (COLO 205): 8.61 µM (inactive)
GI50 (EKVX): 16.6 µM (inactive)
GI50 (HCT-116): 6.61 µM (inactive)
GI50 (HOP-62): 20 µM (inactive)
GI50 (HOP-92): 12.2 µM (inactive)
GI50 (IGROV-1): 10.3 µM (inactive)
GI50 (KM12): 12.3 µM (inactive)
GI50 (M14): 15.9 µM (inactive)
GI50 (MOLT-4): 2.7 µM (inactive)
GI50 (NCI-H23): 16.3 µM (inactive)
GI50 (OVCAR-4): 9.31 µM (inactive)
GI50 (RPMI-8226): 2.84 µM (inactive)
GI50 (SK-MEL-28): 15.6 µM (inactive)
GI50 (SK-MEL-2): 16.1 µM (inactive)
GI50 (SK-MEL-5): 19.2 µM (inactive)
GI50 (SN12C): 16.7 µM (inactive)
GI50 (SNB-19): 8.38 µM (inactive)
GI50 (U-251): 8.69 µM (inactive)

CCOC(=O)O/C(=C\c1ccc(OC)cc1)c1c(OC(=O)OCC)n(C(=O)OCC)c2ccccc12
GI50 (786-0): 39.5 µM (inactive)
GI50 (COLO 205): > 100 µM (inactive)
GI50 (EKVX): 88.9 µM (inactive)
GI50 (HCT-116): 33.9 µM (inactive)
GI50 (HOP-62): 19.9 µM (inactive)
GI50 (IGROV-1): 35.7 µM (inactive)
GI50 (KM12): 7.83 µM (inactive)
GI50 (M14): 23.6 µM (inactive)
GI50 (MCF7): 25.1 µM (inactive)
GI50 (NCI-H23): 27.9 µM (inactive)
GI50 (OVCAR-4): 32.4 µM (inactive)
GI50 (RPMI-8226): 1.83 µM (inactive)
GI50 (SK-MEL-28): 19.6 µM (inactive)
GI50 (SK-MEL-2): 35 µM (inactive)
GI50 (SK-MEL-5): 39 µM (inactive)
GI50 (SN12C): 31.6 µM (inactive)
GI50 (U-251): 24.7 µM (inactive)

Cn1c(=O)c2c(nc3n2C(CCl)CO3)n(C)c1=O (centres undefined)
GI50 (786-0): > 100 µM (inactive)
GI50 (COLO 205): > 100 µM (inactive)
GI50 (EKVX): > 100 µM (inactive)
GI50 (HCT-116): > 100 µM (inactive)
GI50 (HOP-62): > 100 µM (inactive)
GI50 (HOP-92): > 100 µM (inactive)
GI50 (IGROV-1): > 100 µM (inactive)
GI50 (KM12): > 100 µM (inactive)
GI50 (M14): > 100 µM (inactive)
GI50 (MOLT-4): > 100 µM (inactive)
GI50 (NCI-H23): > 100 µM (inactive)
GI50 (OVCAR-4): > 100 µM (inactive)
GI50 (RPMI-8226): > 100 µM (inactive)
GI50 (SK-MEL-28): > 100 µM (inactive)
GI50 (SK-MEL-2): > 100 µM (inactive)
GI50 (SK-MEL-5): > 100 µM (inactive)
GI50 (SN12C): > 100 µM (inactive)
GI50 (SNB-19): > 100 µM (inactive)
GI50 (U-251): > 100 µM (inactive)

NCCC1([N+](=O)[O-])C=CN=CC1 (centres undefined)
GI50 (786-0): > 100 µM (inactive)
GI50 (COLO 205): > 100 µM (inactive)
GI50 (EKVX): > 100 µM (inactive)
GI50 (HCT-116): > 100 µM (inactive)
GI50 (HOP-92): < 0.01 µM (active)
GI50 (IGROV-1): > 100 µM (inactive)
GI50 (KM12): > 100 µM (inactive)
GI50 (M14): > 100 µM (inactive)
GI50 (MOLT-4): > 100 µM (inactive)
GI50 (NCI-H23): > 100 µM (inactive)
GI50 (OVCAR-4): > 100 µM (inactive)
GI50 (RPMI-8226): > 100 µM (inactive)
GI50 (SK-MEL-28): > 100 µM (inactive)
GI50 (SK-MEL-2): > 100 µM (inactive)
GI50 (SK-MEL-5): > 100 µM (inactive)
GI50 (SN12C): > 100 µM (inactive)
GI50 (SNB-19): > 100 µM (inactive)
GI50 (U-251): > 100 µM (inactive)
